In patent US9629816B2, “Small molecule therapeutic compounds targeting thioesterase deficiency disorders and methods of using the same” (The United States of America, as represented by the …, priority 2011, dated 2017):

What was measured:
[1] = test system: PPT1-KO mice; assay: Rotarod Performance Test, motor coordination of PPT1-KO mice; format: in vivo, mouse; settings: 6-month and 8-month old PPT1-KO mice (FIG. 19A-D)
Method: Motor coordination of the untreated- and NtBuHA-treated PPT1-KO mice was assessed using Rotarod) (UGO Basile, Italy) at three different speeds (4, 8 and 12 rpm). In all these speeds the direction of rotation was reversed every 15 seconds. Animals were trained twice at all speed settings for 1 minute each for 3 days. Animals were then given a rest for 1 minute between two trials. Rotarod experiments were performed for at least 60 seconds on day 4 and the amount of time a mouse was on the rotarod before falling from the rotating rod was recorded.
(§1) Since NtBuHA functionally mimics PPT1, the inventors tested 6-month and 8-month old wild-type, untreated- and NtBuHA-treated PPT1-KO mice for motor coordination and exploratory behavior. The Rotarod Performance Test, which measures parameters such as riding time (seconds) and/or endurance was used to measure motor coordination. The open field test was utilized to evaluate the exploratory behavior.

[2] = test system: INCL fibroblasts; assay: TEM analysis of GRODs in cultured INCL fibroblasts; format: cell-based, human; settings: 250 μM for 3 weeks vs untreated fibroblasts (FIG. 10)
Method: Transmission electron microsocopy (TEM) of INCL lymphoblasts and fibroblasts was performed. Briefly, cells were first treated with 250 μM NtBuHA for 3 weeks. Medium was replaced with fresh 250 μM of NtBuHA at every 72 hours. After treatment, cells were fixed with 2.5% glutaraldehyde in sodium phosphate buffer, washed three times with Millonig's phosphate buffer and stained with 2.5% uranyl acetate. Ultra-thin sections were then prepared using AO Reichert Ultracut ultramicrotome, stained with lead citrate and examined by using Zeiss EM10 CA.
Accordingly, untreated- and NtBuHA-treated cultured INCL lymphoblasts were analyzed using TEM.

[3] = test system: PPT1-KO mice; assay: TEM analysis of GRODs in brain cells of PPT1-KO mice; format: in vivo, mouse; settings: PPT1-KO mice treated from 3 to 6 months of age, 1 mM in drinking water (FIG. 12)
Method: All animal experiments were performed according to the institutional guidelines after an animal protocol was approved by the Animal Care and Use Committee of the National Institute of Child Health and Development, National Institutes of Health. PPT1-KO mice (a gift from Dr. S. L. Hofmann, University of Texas Southwestern Medical Center at Dallas, Dallas, Tex., USA) were generated by targeted disruption of the last exon in the PPT1 gene in embryonic stem (ES) cells. These mice were subsequently backcrossed for 10 generations with wild type C57BL/6 mice in order to obtain congenic C57 background and a breeding pair was provided by Dr. Mark Sands to start the inventors' colony. Animals were housed and maintained in a pathogen-free facility. Three-month old PPT-KO mice were given NtBuHA in their drinking water (1 mM NtBuHA and 1 mM NaCl).
Cortical tissue sections were prepared from wild-type mice and untreated- as well as NtBuHA-treated PPT1-KO littermates. Cortical tissues (approximately 1 mm^3) were dissected from those animals, fixed in 2.5% glutaradlehyde in 0.1M sodium cacodylate buffer, pH 7.4 followed by three washing in 0.1 M sodium cacodylate buffer at room temperature. […]

[4] = test system: PPT1-KO mice; assay: Open field test, exploratory behavior of PPT1-KO mice; format: in vivo, mouse; settings: 6-month and 8-month old PPT1-KO mice (FIG. 19E-F)
Excerpt: as §1

[5] = test system: PPT1-KO mice; assay: TUNEL assay of cortical tissue sections of PPT1-KO mice; format: in vivo, mouse; settings: cortical tissue vs untreated PPT1-KO mice (FIG. 16)
Method: It has been reported that postmortem brain tissues from INCL patients as well as those from PPT1-KO mice manifest high levels of oxidative stress, which induces neuronal apoptosis contributing to neuropathology. […] Accordingly, a terminal deoxynucleotidyl transferase dUTP nick end labeling (TUNEL) assay was performed using cortical tissue sections from wild-type, untreated PPT1-KO and NtBuHA-treated PPT1-KO mice to determine the level of apoptosis. […] Since elevated levels of apoptosis in the brain of PPT1-KO mice and INCL patients mediate progressive decline in number of cortical neurons, the inventors also sought to further confirm whether decreased apoptosis in NtBuHA-treated PPT1-KO mice prevented neuronal loss. Accordingly, an immunohistochemical analyses of cortical tissue sections from wild-type, untreated-PPT1-KO, and NtBuHA-treated PPT1-KO mice was performed using antibodies against a neuronal marker, NeuN. […] Quantitative analysis of the NeuN-positive cells in brain tissues from wild-type, untreated and NtBuHA-treated PPT1-KO mice (FIG. 18D) confirmed the visual assessment.

SMILES: CC(C)(C)NO [NtBuHA, N-(tert-Butyl)hydroxylamine]
- motor function (Rotarod) [1]: retained near normal motor function
- GRODs in INCL fibroblasts [2]: significantly lower number of GRODs with markedly reduced size and density
- GRODs in brain cells [3]: markedly reduced number of GRODs
- exploratory behavior (open field) [4]: retained near normal motor function (FIG. 19A-D) as well as exploratory behavior
- TUNEL-positive apoptotic cells [5]: appreciably lower levels of TUNEL-positive apoptotic cells
